Measurements: patent publication US20230374025A1, “FGFR INHIBITOR COMPOUND AND USE THEREOF” (SHENZHEN KANGSU PHARMACEUTICAL TECHNOLOGY CO., LTD., priority 2021, published 2023)

Columns and labels:
Type in all cases: biochemical
[1] = molecular target: T1, VEGFR2 (Homo sapiens, UniProt P35968); test: Assay I: VEGFR2 kinase inhibition (HTRF KinEASE-TK); conditions: ATP 5 μM, substrate TK 1 μM
T1 construct: purchased Carna 08-191
Method: (§1) Assay I: Determination of Inhibitory Activity Against FGFR Mutants
(§2) 1. Reagents and Equipment
(§3) 2.1 Preparation of 1× Kinase Reaction Buffer:
(§4) 1× Kinase reaction buffer was formulated with 1× volume of 5× kinase reaction buffer and 4× volume of water; 5 mM MgCl2; and 1 mM DTT.
(§5) 2.3 Screening of Compounds:
(§6) 1. Diluting a compound 4-fold in a dilution plate with DMSO, with a starting compound concentration of 2 mM.
(§7) 2. Diluting the compound 40-fold into 1× kinase reaction buffer and shaking it on a shaker for 20 minutes.
3. Formulating 2×FGFR1 V561M/FGFR2 V564F/FGFR3 K650E/VEGFR2 with 1× of enzyme reaction buffer.
4. Adding 2 μl FGFR1 V561M/FGFR2 V564F/FGFR3 K650E/VEGFR2 kinase (formulated in step 3) to each well of the reaction plate.
(§8) 5. Adding 1 μl of the compound diluted in buffer to each well, sealing the plate with a sealing membrane and centrifuging the plate at 1000 g for 30 seconds and leaving it at room temperature for 10 minutes.
(§9) 6. Formulating 2.5×TK-substrate-biotin and ATP mixture with 1× enzyme reaction buffer and adding 2 μl of K-substrate-biotin/ATP mixture to the reaction plate.
(§10) 7. Sealing the plate with a sealing membrane and centrifuging the plate at 1000 g for 30 seconds and allowing it to react at room temperature for 50 minutes.
(§11) 8. Formulating 4× Sa-XL 665 (250 nM) with HTRF assay buffer.
(§12) 9. Adding 5 μl Sa-XL 665 and 5 μl TK-Antibody-Cryptate to each well, centrifuging it at 1000 g for 30 seconds, and allowing it to react for 1 hour at room temperature.
(§13) 10. Reading fluorescence signals at 615 nm (Cryptate) and 665 nm (XL665) with Biotek.
(§14) 3.1 Calculation of the ratio for each well: the ratio was calculated as 665/615 nm.
(§15) 3.3 Calculation of IC50 and plotting of inhibition curves for the compounds.
(§16) The IC50 (half inhibition concentration) of a compound was obtained using the following non-linear fitting equation, wherein data analysis was performed using Graphpad 6.0 software.
(§17) Y=Bottom+(Top−Bottom)/(1+10^((Log IC50−X)*Hill Slope)) • X: log value of compound concentration; and Y: inhibition rate (% inh)
(§18) 3.4 Validation of Results
(§19) Data were exported from Envision and analyzed manually. The ratios were converted to inhibition rates and IC50 was calculated by Prism GraphPad 6.0 from the inhibition rates. IC50 was calculated again by the ratios to verify accuracy of the results.
Positive control IC50 was within 3 times of the average value

[2] = molecular target: T2, FGFR1 V561M (Homo sapiens, UniProt P11362, V561M); test: Assay I: inhibitory activity against FGFR mutants (HTRF KinEASE-TK); conditions: ATP 5 μM, substrate TK 1 μM
T2 construct: purchased Signalchem F04-13G
Method: as §1, §2, §3, §4, §5, §6, §7, §8, §9, §10, §11, §12, §13, §14, §15, §16, §17, §18, §19

[3] = molecular target: T3, FGFR3 V555M (Homo sapiens, UniProt P22607, V555M); test: as above; conditions: ATP 20 μM, substrate TK 1 μM
T3 construct: purchased Signalchem F06-12GG
Method: as §1, §2, §3, §4, §5, §6, §7, §8, §9, §10, §11, §12, §13, §14, §15, §16, §17, §18, §19

[4] = molecular target: T4, FGFR2 V564F (Homo sapiens, UniProt P21802, V564F); test: as above; conditions: ATP 10 μM, substrate TK 1 μM
T4 construct: purchased Signalchem F05-12FG
Method: as §1, §2, §3, §4, §5, §6, §7, §8, §9, §10, §11, §12, §13, §14, §15, §16, §17, §18, §19

T1 sequence (P35968 20-1356): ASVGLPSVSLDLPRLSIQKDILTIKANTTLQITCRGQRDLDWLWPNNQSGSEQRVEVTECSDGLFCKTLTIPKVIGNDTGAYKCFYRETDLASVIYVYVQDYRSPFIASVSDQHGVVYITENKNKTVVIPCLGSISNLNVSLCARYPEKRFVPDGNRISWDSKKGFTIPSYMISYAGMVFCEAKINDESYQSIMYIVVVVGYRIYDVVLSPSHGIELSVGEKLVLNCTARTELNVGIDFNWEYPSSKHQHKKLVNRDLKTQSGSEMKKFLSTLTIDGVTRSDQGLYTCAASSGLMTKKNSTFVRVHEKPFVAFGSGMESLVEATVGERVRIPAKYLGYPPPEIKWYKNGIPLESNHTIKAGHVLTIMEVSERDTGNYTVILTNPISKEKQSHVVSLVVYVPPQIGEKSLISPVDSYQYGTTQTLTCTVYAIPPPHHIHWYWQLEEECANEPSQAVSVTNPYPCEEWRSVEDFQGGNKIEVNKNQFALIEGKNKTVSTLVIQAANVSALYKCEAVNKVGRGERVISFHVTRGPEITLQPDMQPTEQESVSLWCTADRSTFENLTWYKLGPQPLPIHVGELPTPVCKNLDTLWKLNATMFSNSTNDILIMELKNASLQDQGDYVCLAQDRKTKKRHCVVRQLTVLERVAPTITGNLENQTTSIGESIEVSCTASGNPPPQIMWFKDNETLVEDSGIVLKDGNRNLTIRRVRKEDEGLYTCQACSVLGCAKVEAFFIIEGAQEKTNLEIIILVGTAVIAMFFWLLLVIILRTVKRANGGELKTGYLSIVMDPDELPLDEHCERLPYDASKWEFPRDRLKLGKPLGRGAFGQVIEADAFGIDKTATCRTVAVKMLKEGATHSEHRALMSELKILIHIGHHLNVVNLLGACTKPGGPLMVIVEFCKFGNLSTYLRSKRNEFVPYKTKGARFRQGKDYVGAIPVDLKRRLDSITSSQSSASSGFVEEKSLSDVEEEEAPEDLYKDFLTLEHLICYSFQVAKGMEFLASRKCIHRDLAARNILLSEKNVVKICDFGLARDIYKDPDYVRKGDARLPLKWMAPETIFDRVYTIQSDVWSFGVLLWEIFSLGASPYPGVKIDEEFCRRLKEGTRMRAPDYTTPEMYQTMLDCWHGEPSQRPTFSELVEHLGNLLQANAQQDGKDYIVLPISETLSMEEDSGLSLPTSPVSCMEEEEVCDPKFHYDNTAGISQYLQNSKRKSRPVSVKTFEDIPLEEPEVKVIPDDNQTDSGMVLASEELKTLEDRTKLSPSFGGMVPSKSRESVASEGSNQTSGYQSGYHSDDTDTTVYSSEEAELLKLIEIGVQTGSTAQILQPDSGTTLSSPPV
T2 sequence (P11362 22-822 V561M): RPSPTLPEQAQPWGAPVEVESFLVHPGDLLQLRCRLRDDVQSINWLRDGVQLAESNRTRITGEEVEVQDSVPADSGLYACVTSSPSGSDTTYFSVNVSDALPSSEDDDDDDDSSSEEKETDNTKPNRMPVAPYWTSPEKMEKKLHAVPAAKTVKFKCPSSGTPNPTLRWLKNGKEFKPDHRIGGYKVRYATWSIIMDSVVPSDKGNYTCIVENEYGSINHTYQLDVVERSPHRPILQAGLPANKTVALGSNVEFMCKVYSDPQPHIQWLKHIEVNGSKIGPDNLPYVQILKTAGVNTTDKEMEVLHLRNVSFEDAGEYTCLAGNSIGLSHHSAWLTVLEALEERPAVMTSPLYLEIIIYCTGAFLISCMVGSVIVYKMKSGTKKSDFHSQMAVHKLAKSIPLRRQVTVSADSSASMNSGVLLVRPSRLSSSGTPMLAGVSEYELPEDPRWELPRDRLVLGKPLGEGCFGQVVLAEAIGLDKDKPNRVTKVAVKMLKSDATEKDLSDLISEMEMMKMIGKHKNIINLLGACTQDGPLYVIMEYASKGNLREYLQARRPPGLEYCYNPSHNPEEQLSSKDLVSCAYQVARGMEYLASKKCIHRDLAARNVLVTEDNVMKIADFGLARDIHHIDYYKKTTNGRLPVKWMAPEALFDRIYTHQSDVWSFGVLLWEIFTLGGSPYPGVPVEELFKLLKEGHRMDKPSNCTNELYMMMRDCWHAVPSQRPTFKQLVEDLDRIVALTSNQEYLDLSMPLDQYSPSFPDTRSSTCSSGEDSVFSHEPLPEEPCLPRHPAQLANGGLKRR
T4 sequence (P21802 22-821 V564F): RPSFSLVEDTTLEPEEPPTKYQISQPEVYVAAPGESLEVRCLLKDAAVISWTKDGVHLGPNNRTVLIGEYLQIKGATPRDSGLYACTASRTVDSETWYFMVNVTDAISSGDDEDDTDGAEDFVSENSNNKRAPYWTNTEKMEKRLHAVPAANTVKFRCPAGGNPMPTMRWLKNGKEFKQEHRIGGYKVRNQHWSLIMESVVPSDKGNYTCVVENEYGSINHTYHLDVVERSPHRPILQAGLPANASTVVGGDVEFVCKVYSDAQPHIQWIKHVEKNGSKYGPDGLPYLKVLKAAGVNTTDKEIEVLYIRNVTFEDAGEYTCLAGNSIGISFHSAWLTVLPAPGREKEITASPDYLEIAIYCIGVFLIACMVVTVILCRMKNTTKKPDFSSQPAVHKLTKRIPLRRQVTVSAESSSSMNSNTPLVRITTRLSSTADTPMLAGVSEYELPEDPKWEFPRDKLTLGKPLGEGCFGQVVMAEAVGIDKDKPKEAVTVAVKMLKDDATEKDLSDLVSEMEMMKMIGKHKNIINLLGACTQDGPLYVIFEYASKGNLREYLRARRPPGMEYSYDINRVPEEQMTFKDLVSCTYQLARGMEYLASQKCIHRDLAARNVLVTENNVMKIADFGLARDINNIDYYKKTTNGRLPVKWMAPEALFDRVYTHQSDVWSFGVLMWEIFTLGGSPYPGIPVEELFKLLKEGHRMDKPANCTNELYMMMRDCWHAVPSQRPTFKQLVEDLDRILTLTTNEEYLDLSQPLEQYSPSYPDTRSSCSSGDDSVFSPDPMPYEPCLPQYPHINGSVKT
T3 sequence (P22607 397-806 V555M limits assumed): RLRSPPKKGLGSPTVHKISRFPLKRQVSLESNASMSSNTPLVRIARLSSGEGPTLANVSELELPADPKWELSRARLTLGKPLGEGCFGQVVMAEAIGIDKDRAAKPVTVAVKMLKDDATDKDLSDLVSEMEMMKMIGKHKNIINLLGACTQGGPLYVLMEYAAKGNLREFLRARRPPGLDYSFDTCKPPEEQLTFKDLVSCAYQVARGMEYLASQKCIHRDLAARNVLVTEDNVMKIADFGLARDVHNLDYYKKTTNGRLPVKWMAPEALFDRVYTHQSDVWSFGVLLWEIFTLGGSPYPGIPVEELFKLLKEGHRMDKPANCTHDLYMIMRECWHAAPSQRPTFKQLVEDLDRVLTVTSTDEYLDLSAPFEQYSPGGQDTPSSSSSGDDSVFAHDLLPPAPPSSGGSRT

SMILES | IC50 [1] [nM] | IC50 [2] [nM] | IC50 [3] [nM] | IC50 [4] [nM]
CC(Oc1ccc2[nH]nc(-c3nc4c([nH]3)CN(C3CCN(C)CC3)CC4)c2c1)c1c(Cl)cncc1Cl (centres unmarked) [Compound 4, 2-(5-(1-(3,5-dichloropyridin-4-yl)ethoxy)-1H-indazol-3-yl)-5-(1-methylpiperidin-4-yl)-4,5,6,7-tetrahydro-3H-imidazo[4,5-c]pyridine] | 17.6 | 0.31 | 0.16 | 0.19
CC(Oc1ccc2[nH]nc(-c3nc4c([nH]3)CN(CCO)C4)c2c1)c1c(Cl)cncc1Cl (centres unmarked) [Compound 15, 2-(2-(5-(1-(3,5-dichloropyridin-4-yl)ethoxy)-1H-indazol-3-yl)-4,6-dihydropyrrolo[3,4-d]imidazol-5(1H)-yl)ethan-1-ol] | 67 | 3.6 | 2 | 2
C[C@@H](Oc1ccc2[nH]nc(-c3nc4c([nH]3)CN(C3CCN(C)C3)C4)c2c1)c1c(Cl)cncc1Cl (stereo partly drawn) [Compound 36, 5-((R)-1-(3,5-Dichloropyridin-4-yl)ethoxy)-3-(5-(1-methylpyrrolidin-3-yl)-1,4,5,6-tetrahydropyrrolo[3,4-d]imidazol-2-yl)-1H-indazole] | 27.5 | 1.9 | 0.31 | 0.61
C[C@@H](Oc1ccc2[nH]nc(-c3nc4c([nH]3)CN(C(=O)[C@@H]3CCCN3)C4)c2c1)c1c(Cl)cncc1Cl [Compound 44, 3-(5-(L-prolinyl)-1,4,5,6-tetrahydropyrrolo[3,4-d]imidazol-2-yl)-5-((R)-1-(3,5-dichloropyridin-4-yl)ethoxy)-1H-indazole] | 5.3 | 0.82 | 0.43 | 0.32
CC(Oc1ccc2[nH]nc(-c3nc4c([nH]3)CN(C(=O)CN3CCC(O)C3)C4)c2c1)c1c(Cl)cncc1Cl (centres unmarked) [Compound 31, 1-(2-(5-(1-(3,5-dichloropyridin-4-yl)ethoxy)-1H-indazol-3-yl)-4,6-dihydropyrrolo[3,4-d]imidazol-5(1H)-yl)-2-(3-hydroxypyrrolidin-1-yl)ethan-1-one] | 14 | 0.67 | 0.1 | 0.15
C[C@@H](Oc1ccc2[nH]nc(-c3nc4c([nH]3)CN(C(=O)[C@@H]3CCCN3C)C4)c2c1)c1c(Cl)cncc1Cl [Compound 45, 5-((R)-1-(3,5-dichloropyridin-4-yl)ethoxy)-3-(5-(methyl-L-prolinyl)-1,4,5,6-tetrahydropyrrolo[3,4-d]imidazol-2-yl)-1H-indazole] | 7.6 | 0.81 | 0.18 | 0.36
C[C@@H](Oc1ccc2[nH]nc(-c3nc4c([nH]3)CN(C(=O)CN3CCC(C#N)C3)C4)c2c1)c1c(Cl)cncc1Cl (stereo partly drawn) [Compound 49, 1-(2-(2-(5-((R)-1-(3,5-dichloropyridin-4-yl)ethoxy)-1H-indazol-3-yl)-4,6-dihydropyrrolo[3,4-d]imidazol-5(1H)-yl)-2-oxoethyl)pyrrolidine-3-carbonitrile] | 6.7 |  | 0.19 | 0.017
CC(Oc1ccc2[nH]nc(-c3nc4c([nH]3)CN(C(=O)C3CCN(C)CC3)C4)c2c1)c1c(Cl)cncc1Cl (centres unmarked) [Compound 6, (2-(5-(1-(3,5-dichloropyridin-4-yl)ethoxy)-1H-indazol-3-yl)-4,6-dihydropyrrolo[3,4-d]imidazol-5(1H)-yl)(1-methylpiperidin-4-yl)ketone] | 3.1 | 0.38 | 0.12 | 0.11
C[C@@H](Oc1ccc2[nH]nc(-c3nc4c([nH]3)CN(C(=O)[C@@H]3CCCCN3C)C4)c2c1)c1c(Cl)cncc1Cl [Compound 47, (2-(5-((R)-1-(3,5-dichloropyridin-4-yl)ethoxy)-1H-indazol-3-yl)-4,6-dihydropyrrolo[3,4-d]imidazol-5(1H)-yl)((S)-1-methylpiperidin-2-yl)ketone] | 2.5 | 0.29 | 0.14 | 0.21
CC(Oc1ccc2[nH]nc(-c3nc4c([nH]3)CN(S(=O)(=O)c3ccn(C)n3)C4)c2c1)c1c(Cl)cncc1Cl (centres unmarked) [Compound 20, 5-(1-(3,5-dichloropyridin-4-yl)ethoxy)-3-(5-((1-methyl-1H-pyrazol-3-yl)sulfonyl)-1,4,5,6-tetrahydropyrrolo[3,4-d]imidazol-2-yl)-1H-indazole] | 13.3 | 1.8 |  | 1.7
CC(Oc1ccc2[nH]nc(-c3nc4c([nH]3)CN(C(=O)C3CC3)C4)c2c1)c1c(Cl)cncc1Cl (centres unmarked) [Compound 25, Cyclopropyl (2-(5-(1-(3,5-dichloropyridin-4-yl)ethoxy)-1H-indazol-3-yl)-4,6-dihydropyrrolo[3,4-d]imidazol-5(1H)-yl)ketone] | 10 | 0.98 | 0.26 | 0.41
CC(Oc1ccc2[nH]nc(-c3nc4c([nH]3)CN(S(=O)(=O)C(C)C)C4)c2c1)c1c(Cl)cncc1Cl (centres unmarked) [Compound 30, 5-(1-(3,5-dichloropyridin-4-yl)ethoxy)-3-(5-(isopropylsulfonyl)-1,4,5,6-tetrahydropyrrolo[3,4-d]imidazol-2-yl)-1H-indazole] | 96 | 0.4 | 0.6 | 0.3
C[C@@H](Oc1ccc2[nH]nc(-c3nc4c([nH]3)CN(C(=O)CN3CC(F)C3)C4)c2c1)c1c(Cl)cncc1Cl [Compound 53, (R)-1-(2-(5-(1-(3,5-dichloropyridin-4-yl)ethoxy)-1H-indazol-3-yl)-4,6-dihydropyrrolo[3,4-d]imidazol-5(1H)-yl)-2-(3-fluoroazetidin-1-yl)ethan-1-one] | 45.5 | 6.4 | 1.9 | 0.82
C[C@@H](Oc1ccc2[nH]nc(-c3nc4c([nH]3)CN(C(=O)CN(C)C)C4)c2c1)c1c(Cl)cncc1Cl [Compound 43, (R)-1-(2-(5-(1-(3,5-dichloropyridin-4-yl)ethoxy)-1H-indazol-3-yl)-4,6-dihydropyrrolo[3,4-d]imidazol-5(1H)-yl)-2-(dimethylamino)ethan-1-one] | 3.3 | 0.26 | 0.35 | 0.13
CC(Oc1ccc2[nH]nc(-c3nc4c([nH]3)CN(C(=O)[C@@H]3CCNC3)C4)c2c1)c1c(Cl)cncc1Cl (stereo partly drawn) [Compound 9, (2-(5-(1-(3,5-dichloropyridin-4-yl)ethoxy)-1H-indazol-3-yl)-4,6-dihydropyrrolo[3,4-d]imidazol-5(1H)-yl)((R)-pyrrolidin-3-yl)ketone] | 5.6 | 0.41 | 0.16 | 0.27
C[C@@H](Oc1ccc2[nH]nc(-c3nc4c([nH]3)CN(C3CCN(S(C)(=O)=O)C3)C4)c2c1)c1c(Cl)cncc1Cl (stereo partly drawn) [Compound 39, 5-((R)-1-(3,5-Dichloropyridin-4-yl)ethoxy)-3-(5-(1-(methylsulfonyl)pyrrolidin-3-yl)-1,4,5,6-tetrahydropyrrolo[3,4-d]imidazol-2-yl)-1H-indazole] | 60.5 |  | 1.4 | 1.3
CC(Oc1ccc2[nH]nc(-c3nc4c([nH]3)CN(S(=O)(=O)c3cnn(C)c3)C4)c2c1)c1c(Cl)cncc1Cl (centres unmarked) [Compound 18, 5-(1-(3,5-dichloropyridin-4-yl)ethoxy)-3-(5-((1-methyl-1H-pyrazol-4-yl)sulfonyl)-1,4,5,6-tetrahydropyrrolo[3,4-d]imidazol-2-yl)-1H-indazole] | 19.6 | 2.2 |  | 1.2
C[C@@H](Oc1ccc2[nH]nc(-c3nc4c([nH]3)CN(C(=O)CN3CCC(F)C3)C4)c2c1)c1c(Cl)cncc1Cl (stereo partly drawn) [Compound 48, 1-(2-(5-((R)-1-(3,5-Dichloropyridin-4-yl)ethoxy)-1H-indazol-3-yl)-4,6-dihydropyrrolo[3,4-d]imidazol-5(1H)-yl)-2-(3-fluoropyrrolidin-1-yl)ethan-1-one] | 11.1 |  | 0.33 | 0.084
CCN1CCN(c2ccc(Nc3cc(N(C)C(=O)Nc4c(Cl)c(OC)cc(OC)c4Cl)ncn3)cc2)CC1 [Infigratinib, reference compound] | 99 |  |  | 
